Article PMC10054465, “Design, Synthesis, and Antiviral Activities of New Benzotriazole-Based Derivatives” (Pharmaceuticals, 2023)

Key:
[1] = Cytotoxicity in mock-infected MDBK cells (MTT); settings: cattle (Bos taurus), mock-infected
VV = assay: microbe, parasite or virus in culture; assay type: cell-based; settings: Orthopoxvirus vaccinia, Vero 76, read-out: VV EC50
VSV = assay: microbe, parasite or virus in culture; assay type: cell-based; settings: Vesicular stomatitis virus, Vero 76, read-out: VSV EC50
BVDV = assay: microbe, parasite or virus in culture; assay type: cell-based; settings: Bovine viral diarrhea virus isolates and strains, MDBK, read-out: BVDV EC50
[2] = Cytotoxicity in mock-infected BHK-21 monolayers (MTT); settings: Syrian hamster (Mesocricetus auratus)
Sb-1 = assay: microbe, parasite or virus in culture; assay type: cell-based, human enterovirus C (poliovirus type-1); settings: Enterovirus C, Vero 76, read-out: Sb-1 EC50
HSV-1 = assay: microbe, parasite or virus in culture; assay type: cell-based, human herpesvirus 1; settings: Human alphaherpesvirus 1, Vero 76, read-out: HSV-1 EC50
[3] = Cytotoxicity in mock-infected Vero-76 monolayers; settings: African green monkey (Cercopithecus aethiops)
CVB5 = assay: microbe, parasite or virus in culture; assay type: cell-based, human enterovirus B (coxsackievirus B5); settings: Enterovirus B, CVB5, Vero 76, read-out: CVB5 EC50
RSV = assay: microbe, parasite or virus in culture; assay type: cell-based; settings: human respiratory syncytial virus, Vero 76, read-out: RSV EC50
YFV = assay: microbe, parasite or virus in culture; assay type: cell-based; settings: Yellow fever virus, BHK-21, read-out: YFV EC50
Reo-1 = assay: microbe, parasite or virus in culture; assay type: cell-based, Reovirus type-1; settings: Reovirus sp., BHK-21, read-out: Reo-1 EC50
[4] = BHK-21 cell monolayers, mock-infected
[5] = Vero-76 cell monolayers, mock-infected

Structure (SMILES) | CC50 [1] [µM] | EC50 (VV) [µM] | EC50 (VSV) [µM] | EC50 (BVDV) [µM] | melting point [°C] | CC50 [2, 4] [µM] | EC50 (Sb-1) [µM] | EC50 (HSV-1) [µM] | CC50 [3, 5] [µM] | EC50 (CVB5) [µM] | EC50 (RSV) [µM] | EC50 (YFV) [µM] | EC50 (Reo-1) [µM] | CC50 ([2]; BHK-21 cells) [µM] | CC50 ([3]; Vero-76 cells) [µM]
Nc1cccc(Cn2nnc3cc(Cl)c(Cl)cc32)c1 [6a] | > 100 | 62.5 ± 16.2 | > 100 | > 100 | 161 to 162 | 57 | > 100 | > 100 | > 100 | 52 ± 3.6 | > 100 |  |  |  | 
O=c1cnn([C@@H]2O[C@H](CO)[C@@H](O)[C@H]2O)c(=O)[nH]1 [6az-ur, 6-azauridine, reference compound] |  |  |  |  |  | > 100 |  |  | 9.3 ± 1.6 |  | 1.1 ± 0.4 | 46 ± 2.5 |  |  | 
Cc1cc2nn(Cc3ccc(N)cc3)nc2cc1C [11b] | > 100 | > 100 | > 100 | > 100 | 169 to 171 | > 100 | > 100 | > 100 | > 100 | 6 | > 100 | > 100 | > 100 |  | 
Nc1ccc(Cn2nc3cc(F)c(F)cc3n2)cc1 [11d] | > 100 | > 100 | > 100 | > 100 | 149 to 150 | > 100 | > 100 | > 100 | > 100 | 7.6 ± 1.9 | > 100 | > 100 | > 100 |  | 
COc1cc(C(=O)Nc2ccc(Cn3nnc4c(F)cccc43)cc2)cc(OC)c1OC [21e] | 72 | > 100 | > 100 |  | 177 to 179 | 60 | > 100 | > 100 | > 100 | > 100 | 20 ± 2 |  |  |  | 
Cc1cc2nn(Cc3cccc(NC(=O)c4ccc(F)cc4)c3)nc2cc1C [25b] | > 100 | > 100 | > 100 | > 100 | 211 to 212 | > 100 | > 100 | > 100 | > 100 | 47 ± 2.2 | > 100 | > 100 | > 100 |  | 
CCCCNC(=O)Nc1cccc(Cn2nc3cc(C)c(C)cc3n2)c1 [32b] | > 100 | > 100 | > 100 |  | 288 to 289 | > 100 | 85 | > 100 | > 100 | > 100 | > 100 | > 100 | > 100 |  | 
COc1cc(C(=O)Nc2cccc(Cn3nnc4cc(Cl)c(Cl)cc43)c2)cc(OC)c1OC [41a] | > 100 | > 100 | > 100 | > 100 | 142 to 144 | > 100 | > 100 | > 100 | > 100 | 18.5 ± 2.1 | > 10.5 | > 100 | > 7 | 7 | 10.5
CC(=O)Nc1ccc(Cn2nnc3ccccc32)cc1 [79c] | 44 | > 72 | > 72 | > 44 | 187 to 189 | 86 | > 72 | > 72 | 72 | > 72 | > 9 | > 86 | > 86 |  | 9
Cc1cc2nnn(Cc3ccc(NC(=O)NC4CCCCC4)cc3)c2cc1C [100b] | > 100 |  | > 100 | > 100 | 216 to 218 | > 100 | > 100 | > 100 | > 100 | 50 | > 100 | > 100 | > 100 |  | 
C[C@@]1(O)[C@H](O)[C@@H](CO)O[C@H]1n1ccc(N)nc1=O [NM107, 2’-C-methylcytidine, reference compound] |  |  |  |  |  | > 100 |  |  |  |  |  |  | 6 ± 2.1 |  | 
